Data taken from ChEMBL document CHEMBL5512597, “Triazole hybrid compounds: A new frontier in malaria treatment” (Eur J Med Chem, 2023).
Converted amounts (≈) assume the structure as drawn.

Legend:
Plasmodium falciparum [1] = test: Antimalarial activity against CQ-sensitive Plasmodium falciparum 3D7 at trophozoite stage infected in O+ human erythrocytes assessed as parasite growth inhibition in presence of 297 uM thiamine by SYBR staining based analysis; type: functional, organism-based; conditions: 3D7, Erythrocyte
Plasmodium falciparum [2] = test: Antimalarial activity against CQ-sensitive Plasmodium falciparum 3D7 infected in O+ human RBCs assessed as parasite growth inhibition by SYBR Green I staining based assay; type: functional, organism-based; conditions: 3D7, Erythrocyte
Plasmodium falciparum [3] = test: Antimalarial activity against CQ-resistant Plasmodium falciparum RKL9 infected in O+ human RBCs assessed as parasite growth inhibition by SYBR Green I staining based assay; type: functional, organism-based; conditions: RKL9, Erythrocyte
Plasmodium falciparum [4] = test: Antimalarial activity against Plasmodium falciparum W2; type: functional, organism-based
Plasmodium falciparum [5] = test: Antimalarial activity against Plasmodium falciparum D6; type: functional, organism-based
Plasmodium falciparum [6] = test: Antimalarial activity against Plasmodium falciparum NF54 infected in human erythrocytes assessed as inhibition of parasitemia by giemsa staining based analysis; type: functional, organism-based; conditions: NF54, Erythrocyte
[7] = Cytotoxicity against African green monkey Vero cells after 72 hrs by MTT assay; type: toxicity, cell-based; conditions: chlorocebus sabaeus
Plasmodium knowlesi = test: Antimalarial activity against Plasmodium knowlesi A1H1; type: functional, organism-based
[8] = Cytotoxicity against human erythrocytes; type: toxicity, cell-based, Erythrocyte
Plasmodium falciparum [9] = test: Antimalarial activity against Plasmodium falciparum Dd2 infected in A+ human erythrocytes assessed as reduction in parasite growth incubated for 72 hrs by SYBR Green I staining based analysis; type: functional, organism-based; conditions: Dd2, Erythrocyte
Plasmodium falciparum [10] = test: Antimalarial activity against Plasmodium falciparum 3D7 infected in A+ human erythrocytes assessed as reduction in parasite growth incubated for 72 hrs by SYBR Green I staining based analysis; type: functional, organism-based; conditions: 3D7, Erythrocyte
Plasmodium falciparum [11] = test: Antimalarial activity against Plasmodium falciparum 3D7 assessed as parasite growth inhibition; type: functional, organism-based
Plasmodium falciparum [12] = test: Antimalarial activity against Plasmodium falciparum K1 assessed as parasite growth inhibition; type: functional, organism-based
Plasmodium falciparum [13] = test: Antiplasmodial activity against CQ-susceptible Plasmodium falciparum 3D7 assessed as parasite growth inhibition incubated for 72 hrs by SYBR Green I staining based analysis; type: functional, organism-based; conditions: 3D7, 72 h
Plasmodium falciparum [14] = test: Antiplasmodial activity against CQ-resistant Plasmodium falciparum W2 assessed as parasite growth inhibition incubated for 72 hrs by SYBR Green I staining based analysis; type: functional, organism-based; conditions: W2, 72 h
[15] = Cytotoxicity against African green monkey Vero cells assessed as cell growth inhibition incubated for 24 hrs by fluorescence based assay; type: toxicity; conditions: African green monkey (Chlorocebus sabaeus)
Plasmodium falciparum [16] = test: Antimalarial activity against CQ-sensitive Plasmodium falciparum 3D7 at trophozoite stage infected in O+ human erythrocytes assessed as parasite growth inhibition in presence of 2.97 uM thiamine by SYBR staining based analysis; type: functional, organism-based; conditions: 3D7, Erythrocyte
Plasmodium falciparum [17] = test: Antiplasmodial activity against CQ-resistant Plasmodium falciparum K1 at asexual erythrocyte stage by LDH assay; type: functional, organism-based
Plasmodium falciparum [18] = test: Antiplasmodial activity against CQ-sensitive Plasmodium falciparum NF54 at asexual erythrocyte stage by LDH assay; type: functional, organism-based
Plasmodium falciparum [19] = test: Antimalarial activity against Plasmodium falciparum 3D7 by SYBR green dye based analysis; type: functional, organism-based
[20] = Cytotoxicity against human Huh-7 cells by MTT assay; type: toxicity, cell-based
Plasmodium falciparum [21] = test: Antiplasmodial activity against Plasmodium falciparum 3D7 at asexual erythrocytic stage infected in human erythrocytes assessed as parasite growth inhibition incubated for 42 hrs by [3H]-hypoxanthine incorporation assay; type: functional, organism-based; conditions: 3D7, Erythrocyte

**Q.** Which IC50 (Plasmodium falciparum [1]) does the source give for Cc1ncc(Cn2cc(CCOC(=O)c3ccccc3)nn2)c(N)n1 here?
**A.** Its IC50 is greater than 200 µM.

**Q.** Which IC50 (Plasmodium falciparum [2]) does the source give for Cc1ccccc1C(=O)/C=C/c1cn(Cc2cn(-c3ccnc4cc(Cl)ccc34)nn2)c2ccccc12 here?
**A.** Its IC50 is 1810 nM.

**Q.** And the IC50 (Plasmodium falciparum [3])?
**A.** Its IC50 is 2.72 µM.

**Q.** With COc1ccccc1C(=O)/C=C/c1cn(Cc2cn(-c3ccnc4cc(Cl)ccc34)nn2)c2ccccc12 as the compound, how does the IC50 (Plasmodium falciparum [2]) read?
**A.** Its IC50 is 2440 nM.

**Q.** And the IC50 (Plasmodium falciparum [3])?
**A.** Its IC50 is 3.55 µM.

**Q.** Which IC50 (Plasmodium falciparum [4]) does the source give for CCCCCCCn1cc(CO)nn1 here?
**A.** Its IC50 is 6.63 µM.

**Q.** And the IC50 (Plasmodium falciparum [5])?
**A.** Its IC50 is 13.3 µM.

**Q.** For C[C@@H]1CC[C@H]2[C@@H](C)C(=O)O[C@@H]3O[C@@]4(C)CC[C@@H]1[C@]32OO4 [ARTEMISININ], which IC50 (Plasmodium falciparum [4]) is on record?
**A.** Its IC50 is 0.094 µM.

**Q.** With Clc1ccc2c(Nc3nc[nH]n3)cccc2c1 as the compound, how does the IC50 (Plasmodium falciparum [6]) read?
**A.** The IC50 was 42.6 µM.

**Q.** With CCN(CC)CCCC(C)Nc1ccnc2cc(Cl)ccc12 (centres undefined) [CHLOROQUINE] as the compound, how does the CC50 at 72 h [7] read?
**A.** The CC50 at 72 h was 112 µM.

**Q.** What about the EC50 (Plasmodium knowlesi) of the same compound?
**A.** Its EC50 is 0.21 µM.

**Q.** What about the CC50 [8] of the same compound?
**A.** Its CC50 is greater than 100 µg/mL.

**Q.** And the EC50 (Plasmodium falciparum [9])?
**A.** Its EC50 is 166 nM.

**Q.** And the EC50 (Plasmodium falciparum [10])?
**A.** The EC50 was 12.7 nM.

**Q.** Which EC50 (Plasmodium knowlesi) does the source give for O=C1CC(c2n[nH]c(=S)n2-c2ccccc2)CN1Cc1ccccc1 (centres undefined) here?
**A.** Its EC50 is 28.9 µM.

**Q.** Which IC50 (Plasmodium falciparum [11]) does the source give for COc1cc(/C=C/C(=O)c2ccc(Cl)cc2)ccc1OCc1cn(-c2ccnc3cc(Cl)ccc23)nn1 here?
**A.** The IC50 was 4.12 µM.

**Q.** And the IC50 (Plasmodium falciparum [12])?
**A.** The IC50 was 3.55 µM.

**Q.** With OB1OCc2cc(OCc3cn(CCN4CCN(c5ccnc6cc(Cl)ccc56)CC4)nn3)ccc21 as the compound, how does the IC50 (Plasmodium falciparum [13]) read?
**A.** Its IC50 is 5.31 µM.

**Q.** What about the IC50 (Plasmodium falciparum [14]) of the same compound?
**A.** Its IC50 is 4.86 µM.

**Q.** And the IC50 at 24 h [15]?
**A.** The IC50 at 24 h was 82.4 µM.

**Q.** Which results are given for Cc1ncc(Cn2cc(CCOC(=O)c3cccc(Cl)c3)nn2)c(N)n1?
**A.** IC50 (Plasmodium falciparum [16]): 62 µM; IC50 (Plasmodium falciparum [1]): 79 µM

**Q.** What does the source list for Clc1ccc2c(NCCn3cc(-c4ccnc(-c5ccccn5)c4)nn3)ccnc2c1?
**A.** IC50 (Plasmodium falciparum [17]): 275 nM; IC50 (Plasmodium falciparum [18]): 98 nM

**Q.** Which results are given for CCCCCCCCCn1cc(C(=O)OC)nn1?
**A.** IC50 (Plasmodium falciparum [4]): 6.67 µM; IC50 (Plasmodium falciparum [5]): 11.2 µM

**Q.** Which IC50 (Plasmodium falciparum [13]) does the source give for OB1OCc2cc(OCc3cn(CCNc4ccnc5cc(Cl)ccc45)nn3)ccc21 here?
**A.** Its IC50 is 4.15 µM.

**Q.** And the IC50 (Plasmodium falciparum [14])?
**A.** Its IC50 is 3.78 µM.

**Q.** What about the IC50 at 24 h [15] of the same compound?
**A.** Its IC50 at 24 h is greater than 100 µM.

**Q.** What does the source list for COc1cc(/C=C/C(=O)c2cc3ccccc3oc2=O)ccc1OCc1cn(-c2ccnc3cc(Cl)ccc23)nn1?
**A.** IC50 (Plasmodium falciparum [11]): > 5 µM; IC50 (Plasmodium falciparum [12]): > 5 µM

**Q.** Which IC50 (Plasmodium falciparum [19]) does the source give for CCOC(=O)c1n[nH]c(-c2ccccn2)n1 here?
**A.** The IC50 was 176 µM.

**Q.** For Cc1cc(C)nc(NS(=O)(=O)c2ccc(-n3cc(COc4ccc([N+](=O)[O-])cc4)nn3)cc2)n1, which CC50 [20] is on record?
**A.** The CC50 was 7.5 µg/mL (≈ 15.6 µM).

**Q.** What about the IC50 (Plasmodium falciparum [21]) of the same compound?
**A.** The IC50 was 6.2 µg/mL (≈ 12.9 µM).
